According to patent US20200246352A1, “Vanadyl and vanadate for use in reducing stress-induced metabolic derangement” (CFM Pharma Holding B.V., priority 2017, published 2020):
Where “and” joins values, the source holds several entries; their conditions need not be identical. Equal values may be shown once.

What was measured:
healthy male Wistar rats [1] = assay: Series 2: BMOV cumulative infusion during adrenaline (or saline) infusion, blood glucose; type: in vivo, rat
Procedure: Glucose levels were measured at t=0, 120, 140, 160, 180 and 200 min.
Blood glucose levels were measured at each time point in duplicates by directly dripping blood onto DCont TREND test strips (77 Elektronika, Budapest, Hungary). […] Blood samples were centrifuged at 4.000 rpm at 4° C. for 15 min. The prepared, separated samples derived from the centrifuged plasma (total volume 200 μl) were kept at −70° C. until shipment.

healthy male Wistar rats [2] = assay: Example 2: BMOV pre-treatment before adrenaline-induced stress hyperglycemia, blood glucose; type: in vivo, rat
Procedure: See Table 8 and Table 9 for further details.
Measurement of glucose levels was performed by DCont TREND glucometer. DCont TREND test strips (77 Elektronika, http://www.regolymedical.hu/en/measuring-tools-and-surgicalinstruments/vercukormero-d-cont-trend.html), in duplicate in order to determine blood glucose levels. See Table 9 for the blood sampling regime during the course of the experiment.

[3] = Saline + BMOV group, 0 min, before saline and BMOV
[4] = Saline + BMOV group, 120 min of saline, before BMOV dose 1
[5] = Saline + BMOV group, 140 min, after BMOV 1 (0.34 mg/kg iv over 20 min)
[6] = Saline + BMOV group, 180 min, after BMOV 3 (2.89 mg/kg, cumulative)
[7] = Saline + BMOV group, 200 min, after BMOV 4 (8.50 mg/kg, cumulative)
[8] = Tonogen + BMOV group (adrenaline 1 μg/kg/min), 0 min, before adrenaline and BMOV
[9] = Tonogen + BMOV group, 120 min of adrenaline, before BMOV dose 1
[10] = Tonogen + 1x BMOV (15 mg/kg ip 3 h before adrenaline 0.3 microgram/kg/min), 0 min
[11] = Tonogen + 1x BMOV (15 mg/kg ip 3 h before adrenaline), 30 min
[12] = Tonogen + 1x BMOV (15 mg/kg ip 3 h before adrenaline), 60 min
[13] = Tonogen + 1x BMOV (15 mg/kg ip 3 h before adrenaline), 90 min
[14] = Tonogen + 1x BMOV (15 mg/kg ip 3 h before adrenaline), 120 min
[15] = Tonogen + 1x BMOV (15 mg/kg ip 3 h before adrenaline), 150 min
[16] = Tonogen + 1x BMOV (15 mg/kg ip 3 h before adrenaline), 180 min
[17] = Tonogen + 2x BMOV (15 mg/kg ip 16-24 h and 3 h before adrenaline 0.3 microgram/kg/min), 0 min
[18] = Tonogen + 2x BMOV (15 mg/kg ip 16-24 h and 3 h before adrenaline), 30 min
[19] = Tonogen + 2x BMOV (15 mg/kg ip 16-24 h and 3 h before adrenaline), 60 min
[20] = Tonogen + 2x BMOV (15 mg/kg ip 16-24 h and 3 h before adrenaline), 90 min
[21] = Tonogen + 2x BMOV (15 mg/kg ip 16-24 h and 3 h before adrenaline), 120 min
[22] = Tonogen + 2x BMOV (15 mg/kg ip 16-24 h and 3 h before adrenaline), 150 min
[23] = Tonogen + 2x BMOV (15 mg/kg ip 16-24 h and 3 h before adrenaline), 180 min
[24] = two doses of BMOV at different time points before stress

With `Cc1occc(=O)c1[O-].Cc1occc(=O)c1[O-].[O]=[V+2]` [BMOV, Bis(maltolato)oxovanadium] the “Effect on the increase of the glucose level” value (healthy male Wistar rats [1]; BMOV administered after the start of and during continued stress (adrenaline infusion)) was “lowers the extent of the increase of the glucose level”, the “Blood glucose level, individual animal in duplicate” value (healthy male Wistar rats [1]; [3]) was 4.7 mM/l and 4.8 mM/l and the “Blood glucose level, mean” value (healthy male Wistar rats [1]; [3]) was 4.75 mM/l. The “Blood glucose level, individual animal in duplicate” value (healthy male Wistar rats [1]; [4]) was 5.7 mM/l and 5.3 mM/l, the “Blood glucose level, mean” value (healthy male Wistar rats [1]; [4]) was 5.50 mM/l and the “Blood glucose level, individual animal in duplicate” value (healthy male Wistar rats [1]; [5]) was 6.3 mM/l. For the same compound, the “Blood glucose level, mean” value (healthy male Wistar rats [1]; [5]) was 6.30 mM/l, the “Blood glucose level, mean” value (healthy male Wistar rats [1]; Saline + BMOV group, 160 min, after BMOV 2 (1.02 mg/kg, cumulative)) was 6.60 mM/l and the “Blood glucose level, individual animal in duplicate” value (healthy male Wistar rats [1]; Saline + BMOV group, 160 min, after BMOV 2 (1.02 mg/kg, cumulative), 1.02 mg/kg) was 6.5 mM/l and 6.7 mM/l. For the same compound, the “Blood glucose level, individual animal in duplicate” value (healthy male Wistar rats [1]; [6]) was 5.9 mM/l, the “Blood glucose level, mean” value (healthy male Wistar rats [1]; [6]) was 5.90 mM/l and the “Blood glucose level, individual animal in duplicate” value (healthy male Wistar rats [1]; [7]) was 3.8 mM/l. For the same compound, the “Blood glucose level, mean” value (healthy male Wistar rats [1]; [7]) was 3.80 mM/l, the “Blood glucose level, individual animals in duplicate” value (healthy male Wistar rats [1]; [8]) was 8.4 mM/l and 7.8 mM/l and 6.0 mM/l (2×) and the “Blood glucose level, mean” value (healthy male Wistar rats [1]; [8]) was 7.05 mM/l. For the same compound, the “Blood glucose level, individual animals in duplicate” value (healthy male Wistar rats [1]; [9]) was 16.4 mM/l and 16.5 mM/l and 11.7 mM/l and 11.2 mM/l, the “Blood glucose level, mean” value (healthy male Wistar rats [1]; [9]) was 13.95 mM/l and the “Blood glucose level, mean” value (healthy male Wistar rats [1]; Tonogen + BMOV group, 140 min, after BMOV 1 (0.34 mg/kg iv over 20 min)) was 15.55 mM/l. The “Blood glucose level, individual animals in duplicate” value (healthy male Wistar rats [1]; Tonogen + BMOV group, 140 min, after BMOV 1 (0.34 mg/kg iv over 20 min), 0.34 mg/kg) was 17.9 mM/l and 17.5 mM/l and 13.5 mM/l and 13.3 mM/l, the “Blood glucose level, mean” value (healthy male Wistar rats [1]; Tonogen + BMOV group, 160 min, after BMOV 2 (1.02 mg/kg, cumulative)) was 15.18 mM/l and the “Blood glucose level, individual animals in duplicate” value (healthy male Wistar rats [1]; Tonogen + BMOV group, 160 min, after BMOV 2 (1.02 mg/kg, cumulative), 1.02 mg/kg) was 14.6 mM/l and 14.5 mM/l and 15.7 mM/l and 15.9 mM/l. For the same compound, the “Blood glucose level, mean” value (healthy male Wistar rats [1]; Tonogen + BMOV group, 180 min, after BMOV 3 (2.89 mg/kg, cumulative)) was 11.03 mM/l, the “Blood glucose level, individual animals in duplicate” value (healthy male Wistar rats [1]; Tonogen + BMOV group, 180 min, after BMOV 3 (2.89 mg/kg, cumulative), 2.89 mg/kg) was 7.8 mM/l and 7.9 mM/l and 14.2 mM/l (2×) and the “Blood glucose level, mean” value (healthy male Wistar rats [1]; Tonogen + BMOV group, 200 min, after BMOV 4 (8.50 mg/kg, cumulative)) was 7.28 mM/l. The “Blood glucose level, individual animals in duplicate” value (healthy male Wistar rats [1]; Tonogen + BMOV group, 200 min, after BMOV 4 (8.50 mg/kg, cumulative), 8.5 mg/kg) was 4.3 mM/l and 4.4 mM/l and 10.1 mM/l and 10.3 mM/l, the “Effect on hyperglycemia compared to adrenaline+vehicle control group” value (healthy male Wistar rats [1]; adrenaline 1 μg/kg/min, at 160-180 min) was “significantly decreased hyperglycemia” and the “Effect of pretreatment on occurrence of hyperglycemia” value (healthy male Wistar rats [2]; BMOV 3 h before stress, or at 16-24 h and 3 h before stress (adrenaline infusion)) was “surprisingly high reduction of the occurrence of hyperglycemia”. For the same compound, the “Blood glucose, individual animals in duplicate” value (healthy male Wistar rats [2]; [10]) was 6.1 mM/l and 6.7 mM/l and 5.1 mM/l and 4.9 mM/l and 6.3 mM/l and 5.9 mM/l, the “Blood glucose, mean” value (healthy male Wistar rats [2]; [10]) was 5.833 mM/l and the “Blood glucose, individual animals in duplicate” value (healthy male Wistar rats [2]; [11]) was 6.9 mM/l (2×) and 5.1 mM/l and 5.9 mM/l and 7.5 mM/l and 7.2 mM/l. For the same compound, the “Blood glucose, mean” value (healthy male Wistar rats [2]; [11]) was 6.583 mM/l, the “Blood glucose, individual animals in duplicate” value (healthy male Wistar rats [2]; [12]) was 8.4 mM/l and 8 mM/l and 6 mM/l (2×) and 9.7 mM/l and 10 mM/l and the “Blood glucose, mean” value (healthy male Wistar rats [2]; [12]) was 8.017 mM/l. For the same compound, the “Blood glucose, individual animals in duplicate” value (healthy male Wistar rats [2]; [13]) was 9.4 mM/l and 9.2 mM/l and 9.8 mM/l and 9.7 mM/l and 8.6 mM/l and 9 mM/l, the “Blood glucose, mean” value (healthy male Wistar rats [2]; [13]) was 9.283 mM/l and the “Blood glucose, individual animals in duplicate” value (healthy male Wistar rats [2]; [14]) was 10.7 mM/l and 11.2 mM/l and 12.2 mM/l and 11.5 mM/l and 4.6 mM/l and 4.7 mM/l. The “Blood glucose, mean” value (healthy male Wistar rats [2]; [14]) was 9.15 mM/l, the “Blood glucose, individual animals in duplicate” value (healthy male Wistar rats [2]; [15]) was 12.3 mM/l and 12.6 mM/l and 11.7 mM/l and 11.6 mM/l and the “Blood glucose, mean” value (healthy male Wistar rats [2]; [15]) was 12.05 mM/l. For the same compound, the “Blood glucose, individual animals in duplicate” value (healthy male Wistar rats [2]; [16]) was 12.4 mM/l and 12.2 mM/l and 11.9 mM/l (2×), the “Blood glucose, mean” value (healthy male Wistar rats [2]; [16]) was 12.1 mM/l and the “Blood glucose, individual animals in duplicate” value (healthy male Wistar rats [2]; [17]) was 5.2 mM/l (2×) and 5.4 mM/l and 4.4 mM/l and 4.3 mM/l and 5.1 mM/l and 5.8 mM/l and 4.8 mM/l. The “Blood glucose, mean” value (healthy male Wistar rats [2]; [17]) was 5.025 mM/l, the “Blood glucose, individual animals in duplicate” value (healthy male Wistar rats [2]; [18]) was 5.2 mM/l and 4.8 mM/l and 5 mM/l (2×) and 5.3 mM/l (2×) and 6.3 mM/l and 6.1 mM/l and the “Blood glucose, mean” value (healthy male Wistar rats [2]; [18]) was 5.375 mM/l. The “Blood glucose, individual animals in duplicate” value (healthy male Wistar rats [2]; [19]) was 5.2 mM/l and 4.4 mM/l and 4.3 mM/l and 6.3 mM/l and 6.4 mM/l and 7.1 mM/l and 7 mM/l and 5.3 mM/l, the “Blood glucose, mean” value (healthy male Wistar rats [2]; [19]) was 5.75 mM/l and the “Blood glucose, individual animals in duplicate” value (healthy male Wistar rats [2]; [20]) was 5.8 mM/l (2×) and 3.4 mM/l and 3.2 mM/l and 6.4 mM/l and 6.8 mM/l and 8.5 mM/l and 8.2 mM/l. For the same compound, the “Blood glucose, mean” value (healthy male Wistar rats [2]; [20]) was 6.0125 mM/l, the “Blood glucose, individual animals in duplicate” value (healthy male Wistar rats [2]; [21]) was 6.7 mM/l (2×) and 2.7 mM/l and 2.6 mM/l and 7.4 mM/l and 7.7 mM/l and 9.1 mM/l and 8.6 mM/l and the “Blood glucose, mean” value (healthy male Wistar rats [2]; [21]) was 6.4375 mM/l. For the same compound, the “Blood glucose, individual animals in duplicate” value (healthy male Wistar rats [2]; [22]) was 7.4 mM/l and 1.4 mM/l and 1.3 mM/l and 7.7 mM/l (2×) and 7.9 mM/l and 7.6 mM/l and 7.5 mM/l, the “Blood glucose, mean” value (healthy male Wistar rats [2]; [22]) was 6.0625 mM/l and the “Blood glucose, individual animals in duplicate” value (healthy male Wistar rats [2]; [23]) was 6.7 mM/l and 7 mM/l and 6.8 mM/l and 4.6 mM/l and 4.8 mM/l and 6.9 mM/l. The “Blood glucose, mean” value (healthy male Wistar rats [2]; [23]) was 6.133 mM/l, the “Effect on occurrence of hyperglycemia during the period of stress” value (healthy male Wistar rats [2]; first dose 16 to 24 h and second dose 3 h prior to stress) was “inhibited the occurrence of hyperglycemia” and the “Effect on extent of hyperglycemia during the period of stress” value (healthy male Wistar rats [2]; single dose of BMOV 3 h prior to stress) was “reduced the extent of hyperglycemia considerably”. The “Maximum average glucose level in the blood” value (healthy male Wistar rats [2]; [24]) was “about 6.4 mmol/l” and the “Rise in blood glucose level” value (healthy male Wistar rats [2]; [24]) was no more than 28%.
